Test results from publication PMC8041284, “Tunable Methacrylamides for Covalent Ligand Directed Release Chemistry” (Journal of the American Chemical Society, 2021).
Read-outs that look alike come from different tables or passages of the source.

How the values were obtained:
BTK [1] = biological target: T1, BTK (Homo sapiens, UniProt Q06187); conditions: 10 µM, inhibitor
BTK [2] = biological target: T1, BTK; assay: biochemical; conditions: read-out: BTK inhibition (%), 0.75 uM BTK, […] probe 3l, 15 min preincubation
BTK [3] = biological target: T1, BTK; assay: biochemical; design: HTS: BTK preincubated 15 min with compound, then chemiluminescent covalent probe 3l; loss of luminescence at 30 min; conditions: 0.75 uM BTK, 1.5 uM probe 3l, 15 min preincubation
primary mouse B cells = assay: B-cell response experiment (anti-IgM activation, CD86 by flow cytometry); format: cell-based; conditions: representative FACS plot, concentration not given
[4] = 0.75 uM BTK, […] probe 3l, 15 min preincubation, BTK inhibition (%)
[5] = 0.75 uM BTK, […] probe 3l, 15 min preincubation

T1 sequence (Q06187 402-655 limits assumed): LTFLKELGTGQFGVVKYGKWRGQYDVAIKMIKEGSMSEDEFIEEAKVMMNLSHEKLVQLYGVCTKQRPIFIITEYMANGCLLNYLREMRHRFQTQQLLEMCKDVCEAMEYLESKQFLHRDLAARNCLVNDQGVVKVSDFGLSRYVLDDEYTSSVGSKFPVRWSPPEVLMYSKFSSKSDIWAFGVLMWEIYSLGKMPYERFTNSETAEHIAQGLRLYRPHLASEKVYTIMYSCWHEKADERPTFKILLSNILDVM

CCOc1ccccc1OCCN[C@H](C)Cc1ccc(OC)c(S(N)(=O)=O)c1 [PCM-0214853]
BTK inhibition (%) (BTK [1]; [4]): 13.2%
inhibition at 10 µM (BTK [2]): 7%

COc1cc2c3cc1Oc1c(OC)c(OC)cc4c1[C@@H](Cc1ccc(O)c(c1)Oc1ccc(cc1)C[C@@H]3N(C)CC2)N(C)CC4 [PCM-0214866]
BTK inhibition (%) (BTK [1]; [4]): 17.8%
inhibition at 10 µM (BTK [2]): 21.4%

CC[C@]12C=CCN3CC[C@]4(C(=C(C(=O)OC)C1)Nc1ccccc14)[C@@H]32 [PCM-0215925]
BTK inhibition (%) (BTK [1]; [4]): 13.9%
inhibition at 10 µM (BTK [2]): 10.8%

CC(C)[C@]12O[C@H]1[C@@H]1O[C@@]13[C@@]1(C)CCC4=C(COC4=O)[C@@H]1C[C@@H]1O[C@@]13C2=O [PCM-0216318]
inhibition at 10 µM (BTK [3]): -26.3%

C[C@]12CC[C@H](O)C[C@@]1(O)CC[C@@H]1[C@@H]2CC[C@]2(C)[C@@H](C3=CC(=O)OC3)CC[C@]12O [PCM-0216443]
inhibition at 10 µM (BTK [3]): 6.2%

C[C@H]1CC[C@@H]2N(C1)C[C@H]1[C@@H]3C[C@H]4[C@@H](C[C@H](O)[C@H]5C[C@@H](O)CC[C@@]54C)[C@@H]3CC[C@@H]1[C@]2(C)O [PCM-0216522]
BTK inhibition (%) (BTK [1]): -15.4%

C=C[C@]12CN(C)[C@@H]3[C@H]4CO[C@H](C[C@H]41)[C@]1(C(=O)Nc4ccccc41)[C@@H]32 [PCM-0216528]
BTK inhibition (%) (BTK [1]): -0.8%

C/C=C(/C)C(=O)O[C@H]1[C@@H](OC(C)=O)c2c(ccc3ccc(=O)oc23)OC1(C)C [PCM-0216546]
BTK inhibition (%) (BTK [1]; [4]): -14.7%

CCC(=O)NS(=O)(=O)c1ccc(-c2c(-c3ccccc3)noc2C)cc1 [PCM-0216557]
BTK inhibition (%) (BTK [1]; [4]): 2.3%

O=C(NC(=O)c1c(F)cccc1F)Nc1ccc(OC(F)(F)C(F)OC(F)(F)F)c(Cl)c1 (stereo not shown) [PCM-0216580]
BTK inhibition (%) (BTK [1]; [5]): 22.4%

CCCCC(C#N)(Cn1cncn1)c1ccc(Cl)cc1 (stereo not shown) [PCM-0216598]
BTK inhibition (%) (BTK [1]; [5]): 3.1%

COc1ccc(C[C@@H](C)NC[C@H](O)c2ccc(O)c(NC=O)c2)cc1 [PCM-0216637]
BTK inhibition (%) (BTK [1]; [4]): 6.9%

C[C@H]1CCCC(=O)CCC/C=C/c2cc(O)cc(O)c2C(=O)O1 [PCM-0216639]
BTK inhibition (%) (BTK [1]): 10.8%

CN1C2CC(OC(=O)C(CO)c3ccccc3)CC1C(O)C2 (stereo not shown) [PCM-0216645]
BTK inhibition (%) (BTK [1]; [5]): 6.9%

CC[C@H]1OC(=O)[C@H](C)[C@@H](O[C@H]2C[C@@](C)(OC)[C@@H](O)[C@H](C)O2)[C@H](C)[C@@H](O[C@@H]2O[C@H](C)C[C@H](N(C)C)[C@H]2O)[C@](C)(O)C[C@@H](C)CN(C)[C@H](C)[C@@H](O)[C@]1(C)O [PCM-0216649]
BTK inhibition (%) (BTK [1]; [4]): 11.7%

C=CC(=O)N1CCC[C@@H](n2nc(-c3ccc(Oc4ccccc4)cc3)c3c(N)ncnc32)C1 [ibrutinib, reference compound]
B220+ cells-activated (CD86 positive) (primary mouse B cells): 81.2%
